Source: patent US9061981B2, “Diphenyl substituted cyclohexane derivatives, useful as modulators of the estrogen receptors beta” (Acadia Pharmaceuticals Inc., priority 2011, dated 2015)

Legend:
[1] = target: T1, ERα (Homo sapiens, UniProt P03372); assay: Competitive 3H-estradiol binding assay, ERα; conditions: 1 nM 3H-estradiol, HEK293T cytosolic extract; read-out: Binding ERα pKi (converted)
T1 sequence (P03372 1-595): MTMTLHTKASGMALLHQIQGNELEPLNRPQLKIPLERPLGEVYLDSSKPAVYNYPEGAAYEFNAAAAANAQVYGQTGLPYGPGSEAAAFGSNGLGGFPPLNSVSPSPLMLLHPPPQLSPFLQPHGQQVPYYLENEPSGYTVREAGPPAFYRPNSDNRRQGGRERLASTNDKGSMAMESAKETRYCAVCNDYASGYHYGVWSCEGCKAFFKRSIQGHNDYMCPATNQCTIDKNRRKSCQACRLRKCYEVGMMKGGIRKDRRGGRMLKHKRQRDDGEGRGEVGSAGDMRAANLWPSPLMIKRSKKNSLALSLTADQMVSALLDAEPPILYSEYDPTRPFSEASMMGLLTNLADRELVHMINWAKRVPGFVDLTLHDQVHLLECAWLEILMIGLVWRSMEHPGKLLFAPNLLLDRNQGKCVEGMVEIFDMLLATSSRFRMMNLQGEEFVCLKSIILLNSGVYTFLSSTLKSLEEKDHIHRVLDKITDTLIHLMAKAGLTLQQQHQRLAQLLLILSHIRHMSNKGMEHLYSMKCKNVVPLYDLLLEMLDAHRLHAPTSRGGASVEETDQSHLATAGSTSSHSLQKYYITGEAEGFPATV
Protocol: HEK293T cells were transiently transfected for 48 hours with expression vectors encoding ERα or ERβ, before being serum starved for 4-6 hours. Cells were then harvested by scraping in ice-cold PBS and subsequently lysed using a cold buffer containing 10 mM Tris pH 7.4, 1 mM EDTA, 1 mM DTT before being subjected to polytron twice for 10 seconds. Cytosolic extracts were isolated by centrifugation at 15000 g for 30 minutes at 4° C. Competitive binding of the test compounds or the estradiol control was performed on 20 μL extract by overnight incubation at 4° C. in a total volume of 100 μL containing 1 nM ^3H-estradiol (Perkin Elmer, Boston, Mass.). The bound fraction was separated from the unbound one by the addition of 100 μL of Dextran coated charcoal, incubated for 10 minutes and subsequent centrifugation at 1000 rpm for 10 minutes. Samples (100 μL per sample) were then analyzed by liquid scintillation. Data was then analyzed using the curve fitting software GraphPad Prism.

[2] = tested on: nigrostriatal dopamine neurons; assay: Tyrosine hydroxylase immunofluorescence in SN and STR after 6OHDA lesion; assay type: in vivo, Male rats; conditions: 6OHDA rats, once daily 7 days sc; 10 mg/kg (estradiol 100 μg/kg)
Protocol: Male rats received baseline assessment of weight, motor function (spontaneous locomotor behavior, rotorod performance) and sensorimotor gating (prepulse inhibition). Subjects were assigned to treatment conditions to equalize performance on all these measures. Subjects were then treated once daily for 7 days with either sesame oil vehicle, estradiol (100 μg/kg sc), Comparative substance 131 (10 mg/kg sc), Compound 8 (10 mg/kg sc), Comparative substance 623 (10 mg/kg sc) or Comparative substance 957 (10 mg/kg sc). On the second day of treatment, subjects received bilateral sham or 6OHDA lesions (8 μg in 4 μl) of the substantia nigra (A/P−5.0 mm, M/L±1.6 mm, D/V−8.2 mm) following the atlas of Paxinos and Watson (Paxinos, G., Watson, C., The Rat Brain in Stereotaxic Coordinates, Fourth Edition, New York: Academic Press, Spiral Bound, 1998). Behavioral assessments of motor function (spontaneous locomotion, rotorod and traversing a challenging beam), cognition (novel object recognition) and sensorimotor gating (prepulse inhibition) began after the final day of treatment. Following behavioral assessment, SN and striatal tissue were collected in order to determine the intactness of the nigrostriatal dopamine system.
Comparative compound 131 and Compound 8 were compared with estradiol for their ability to protect nigrostriatal dopamine neurons as measured by tyrosine hydroxylase (TH) immunohistochemistry in the SN and striatum (STR).

[3] = target: T2, ERβ (Homo sapiens, UniProt Q92731); assay: R-SAT functional assay, ERβ; assay type: cell-based; design: expressed in transfected cells; host or cells: transient transfection; conditions: NIH3T3, read-out: R-SAT Erβ % Eff
T2 sequence (Q92731 whole entry, species assumed): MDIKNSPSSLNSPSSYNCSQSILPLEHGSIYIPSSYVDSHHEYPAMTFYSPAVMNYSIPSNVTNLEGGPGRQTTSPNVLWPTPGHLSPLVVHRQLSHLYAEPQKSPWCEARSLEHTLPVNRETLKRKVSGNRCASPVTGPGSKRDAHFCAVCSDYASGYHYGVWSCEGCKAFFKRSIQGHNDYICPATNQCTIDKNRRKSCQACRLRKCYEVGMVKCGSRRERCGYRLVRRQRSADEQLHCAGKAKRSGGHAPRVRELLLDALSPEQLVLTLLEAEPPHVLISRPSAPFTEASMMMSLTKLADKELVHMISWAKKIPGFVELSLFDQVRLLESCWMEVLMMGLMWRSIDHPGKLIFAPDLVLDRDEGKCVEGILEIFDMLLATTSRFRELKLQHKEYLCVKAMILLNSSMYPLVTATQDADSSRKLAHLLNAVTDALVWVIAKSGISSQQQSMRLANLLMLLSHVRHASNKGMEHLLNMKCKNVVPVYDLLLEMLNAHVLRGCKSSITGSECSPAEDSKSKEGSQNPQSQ
From the text: (§1) R-SAT® (Receptor Selection and Amplification Technology) is a cell-based functional assay that allows one to monitor receptor-dependent proliferative responses and has been described elsewhere. […] This process is achieved by partial cellular transformation via loss of contact inhibition and growth factor dependency. Monitoring is achieved by transfecting the cells with a β-galactosidase reporter gene vector whose expression is under a constitutively active promoter. Briefly, NIH-3T3 fibroblasts were plated overnight in 96-wells plates in DMEM 10% calf serum (Hyclone) and grown to 60-70% confluency prior to transfection. Transient transfections were performed using Polyfect (Qiagen) according to manufacturer's instructions. Typically a transfection mix would consist of the receptor and the β-galactosidase expression vectors. Sixteen hours post-transfection, cells were incubated with different doses of ligand in DMEM containing 30% Ultraculture (Hyclone) and 0.4% calf serum (Hyclone) to generate a dose response curve. […] Plates were read using a microplate reader at 420 nm. Data from R-SAT® assays were fit to the equation: r=A+B(x/(x+c)), where A=minimum response, B=maximum response minus minimum response, c=EC50, r=response, and x=concentration of ligand. Curves were generated using the curve fitting softwares Excel Fit and GraphPad Prism (San Diego, Calif.). Luciferase Reporter Gene Assay

[4] = target: T1, ERα; assay: Luciferase reporter gene assay (3*ERE) in HEK293 cells, ERα; assay type: cell-based; design: expressed in transfected cells; host or cells: transient transfection; conditions: 48 hours; for EC50: na = not active, read-out: Luciferase Erα pEC50 (converted)
Protocol: (§2) HEK293 cells were grown to 70% confluency in DMEM containing 10% calf serum (Hyclone) prior to transfection. On the day of transfection (day 1), expression vectors for ERα or ERβ were cotransfected along a construct containing a synthetic 3*ERE upstream of the luciferase gene (Panomics), using Polyfect (Qiagen) per manufacturer's recommendations (ERE being estrogen response element). Sixteen hours post-transfection, cells were incubated in serum free DMEM. […] Cells extracts were then obtained by lyzing and the Luciferase activity measured, all of these steps performed using a commercially available kit (Promega).

[5] = target: T2, ERβ; assay: Luciferase reporter gene assay (3*ERE) in HEK293 cells, ERβ; assay type: cell-based; design: expressed in transfected cells; host or cells: HEK293 cells, transient transfection; conditions: for Emax: HEK293, 48 h, read-out: Luciferase Erβ % Eff
Protocol: as §2

[6] = target: T1, ERα; assay: R-SAT functional assay, ERα; assay type: cell-based; design: expressed in transfected cells; host or cells: NIH-3T3 fibroblasts, transient transfection; conditions: NIH-3T3 cells; for EC50: na = not active, read-out: R-SAT Erα pEC50 (converted)
From the text: as §1

Row | Compound | Ki [1] [nM] | percent immunopositive and mean pixel intensity of TH immunofluorescence in the STR [2] | percent immunopositive, mean cell size and mean pixel intensity of TH immunofluorescence in the SN [2] | tyrosine hydroxylase positive cell number in the SN [2] | Emax [3] [%] | Luciferase Erα % Eff [4] [%] | EC50 [4] [nM] | EC50 [5] [nM] | Emax [5] [%] | R-SAT Erα % Eff [6] [%] | EC50 [6] [nM]
1 | Oc1ccc(C2(c3ccccc3F)CCC(F)(F)CC2)cc1 [Compound 8, 4-(4,4-Difluoro-1-(2-fluorophenyl)cyclohexyl)phenol] | 79.4 | increase in percentage of the image that was immunopositive and increased mean pixel intensity | improved percent immunopositive, mean cell size and mean pixel intensity | prevented the reduction in cell number | 69 | 32 | 631 | 0.631 | 96 | 62 | 1000
2 | Oc1ccc(C2(c3cccc(F)c3Cl)CCCCC2)cc1 [Compound 623] | 794 |  | improved percent immunopositive, mean cell size and mean pixel intensity | prevented the reduction in cell number | 89 | 15 | 398 | 5.01 | 99 | 45 | 398
3 | Oc1ccc(C2(c3ccccc3Cl)CCCCC2)cc1F [Compound 957] | 200 |  | improved percent immunopositive, mean cell size and mean pixel intensity | prevented the reduction in cell number | 94 | 13 |  | 1.26 | 62 | 58 | 631
